Data as given in patent publication US20100099088A1, “RELIABLE DETECTION OF VANCOMYCIN-INTERMEDIATE STAPHYLOCOCCUS AUREUS” (priority 2006, published 2010).
≈ marks a conversion by molar mass, not a printed value. Where two headings read alike, the source gives them in different places.

Key:
Japanese strain Mu3 = conditions: strain Mu3, tests as susceptible; cited from earlier work
[1] = tested on: Staphylococcus aureus hVISA/VISA strains; set-up: key: CG, confluent growth; IC, individual colonies; NG, no growth; conditions: cited from earlier work
[2] = tested on: SAV2095 (SEQ ID NO.:1) expression in S. aureus; experiment: SAV2095 homologue mRNA expression by qRT-PCR after growth in subinhibitory vancomycin; assay type: cell-based, Staphylococcus aureus
Method: Overnight cultures of strains were diluted 1/100 in tryptic soy broth containing either 0 (for all strains), 1 (for selected MRSA), or 3 (for selected VISA) mg/L vancomycin and grown to mid-log phase. Cells from 1 mL culture were harvested and treated with RNAProtect (Qiagen). Cells were subsequently treated with lysostaphin for 30 min at 37° C., and total RNA was isolated from each sample and each condition using the RNeasy Kit (Qiagen). Samples were then treated with Turbo DNA-free (Ambion, Austin, Tex.) to remove any contaminating genomic DNA. RNA quantity and quality was assessed using an Agilent Technologies 2100 bioanalyzer and RNA 6000 Nano LabChip kit (Agilent, Mountain View, Calif.). Complementary DNA (cDNA) was generated from 688 ng of total RNA using a random primer hexamer following the protocol for Superscript II (Invitrogen, Carlsbad, Calif.) in a 20 μL volume.
Equal amounts (34 ng) of cDNA were run in triplicate and amplified in a 15 μl reaction containing 7.5 μL of 2× Universal PCR Master Mix (Applied Biosystems, Foster City, Calif.), 10 nM of Z-tailed forward primer, 100 nM of reverse primer, 100 nM of Amplifluor Uniprimer probe (Chemicon, Temecula, Calif.), and 1 μL of DNA target. Moreover, no-template controls were used as recommended. The mixture was incubated at 50° C. for 2 min, at 95° C. for 4 min, and then cycled at 95° C. for 15 sec and at 55° C. for 40 sec 55 times using the Applied Biosystems Prism 7900 Sequence Detector. Amplification efficiencies were validated and normalized to expression of the 16S rRNA gene as a standard, and quantity of target and standard genes were calculated according to a standard curve. Primers were designed using Primer Express 2.0 (Applied Biosystems) and their sequence data are the following: for SAV2095, forward, 5-Ztail-[…]-3, reverse, 5-[…]-3; and for 16S rRNA, forward, 5-Ztail-[…]-3, reverse, 5-GCTTAAGGGTTGCGCTCGT-3. Amplicons were detected using the Amplifluor™ UniPrimerr™ system where forward primers used contained the 5′ Z sequence ACTGAACCTGACCGTACA. As it is appreciated by a person skilled in the art, it is to be understood herein that other primers may be used for amplifying and detecting SAV2095 without departing from the scope of the invention. A person skilled in the art knows how to design primers for any given amplification assay. For example, in a multiplex assay, primers would need to have similar melting temperatures and low complementarity, etc.

[3] = tested on: Staphylococcus aureus strains (MRSA, hVISA/VISA, in vitro-selected); experiment: CLSI-approved (standard) Etest, vancomycin MIC, 0.5 McFarland inoculum; assay type: cell-based; conditions: for MIC: Staphylococcus aureus; on CLSI Etest category: key: S = sensitive; I = intermediate; R = resistant
Method: Vancomycin MICs were determined using standard Etest methods. Briefly, colonies from a fresh overnight plate were resuspended in saline to a turbidity equivalent to 0.5 McFarland units. This suspension was swabbed onto Mueller-Hinton agar plates, allowed to dry, and overlaid with a Vancomycin Etest strip (AB Biodisk). Plates were incubated at 37° C. for 48 h and interpreted. […] For some MRSA strains, the macromethod Etest was also applied, using an inoculum equivalent to 2 McFarland units on Brain-Heart Infusion agar plates.

[4] = tested on: Staphylococcus aureus strains (MRSA, hVISA/VISA); conditions: cited from earlier work; on Modified Etest category: key: S = sensitive; I = intermediate; R = resistant
[5] = strain 160013 (NRS283), 2 McF inoculum
[6] = strain BR 5 (NRS56), 2 McF inoculum
[7] = strain HIP07930 (NRS22), 2 McF inoculum
[8] = strain HIP09433 (NRS27), 2 McF inoculum
[9] = strain HIP09662 (NRS28), 2 McF inoculum
[10] = strain HIP12864 (NRS402), 2 McF inoculum
[11] = strain LIM 1 (NRS35), 2 McF inoculum
[12] = strain LIM 3 (NRS37), 2 McF inoculum
[13] = strain LY-1999 0620-01 (NRS63), 2 McF inoculum
[14] = strain LY-1999 0620-02 (NRS64), 2 McF inoculum
[15] = strain Mu3 (NRS2), 2 McF inoculum
[16] = strain Mu50 (NRS1), 2 McF inoculum
[17] = strain SA MER (NRS11), 2 McF inoculum
[18] = strain SA MER-S20 (NRS14), 2 McF inoculum

For CN[C@H](CC(C)C)C(=O)N[C@H]1C(=O)N[C@@H](CC(N)=O)C(=O)N[C@H]2C(=O)N[C@H]3C(=O)N[C@H](C(=O)N[C@H](C(=O)O)c4cc(O)cc(O)c4-c4cc3ccc4O)[C@H](O)c3ccc(c(Cl)c3)Oc3cc2cc(c3O[C@@H]2O[C@H](CO)[C@@H](O)[C@H](O)[C@H]2O[C@H]2C[C@](C)(N)[C@H](O)[C@H](C)O2)Oc2ccc(cc2Cl)[C@H]1O [vancomycin], the “MIC (minimum inhibitory concentration)” value (Japanese strain Mu3) is listed as less than 4 mg/L, the Agar screen growth ([1]; strain 160013 (NRS283), 48 h incubation) is listed as “IC (48)” and the Agar screen growth ([1]; strain BR 5 (NRS56), 24 h incubation) is listed as “CG (24)”. For the same molecule, the Agar screen growth ([1]; strain HIP07930 (NRS22), 48 h incubation) was “IC (48)”, the Agar screen growth ([1]; strain HIP09433 (NRS27), 72 h incubation) was “NG (72)” and the Agar screen growth ([1]; strain HIP09662 (NRS28), 72 h incubation) was “NG (72)”. The Agar screen growth ([1]; strain HIP12864 (NRS402), 24 h incubation) was “CG (24)”, the Agar screen growth ([1]; strain LIM 1 (NRS35), 72 h incubation) was “NG (72)” and the Agar screen growth ([1]; strain LIM 3 (NRS37), 72 h incubation) was “NG (72)”. The Agar screen growth ([1]; strain LY-1999 0620-01 (NRS63), 48 h incubation) was “IC (48)”, the Agar screen growth ([1]; strain LY-1999 0620-02 (NRS64), 72 h incubation) was “NG (72)” and the Agar screen growth ([1]; strain Mu3 (NRS2), 72 h incubation) was “NG (72)”. For the same molecule, the Agar screen growth ([1]; strain Mu50 (NRS1), 24 h incubation) was “CG (24)”, the Agar screen growth ([1]; strain NRS118, 24 h incubation) was “CG (24)” and the Agar screen growth ([1]; strain SA MER (NRS11), 72 h incubation) was “NG (72)”. For the same molecule, the Agar screen growth ([1]; strain SA MER-S20 (NRS14), 24 h incubation) was “CG (24)”, the “Effect on SAV2095 expression level” value ([2]; MRSA strains grown with subinhibitory vancomycin 1 mg/L) was “does not consistently increase” and the “Effect on SAV2095 expression level” value ([2]; MRSA strains grown with subinhibitory vancomycin 1 mg/L, listed as Vn) was “not in MRSA”. The “Effect on SAV2095 expression level” value ([2]; VISA strains grown with subinhibitory vancomycin 3 mg/L, p<0.05) was “consistently increased further”, the “Effect on SAV2095 expression level” value ([2]; VISA strains grown with subinhibitory vancomycin 3 mg/L, p<0.05, listed as Vn) was “increased expression of SAV2095” and the MIC ([3]; ATCC 29213 / MRSA / VISA, control strain S. aureus ATCC29213, read-out: MIC (standard Etest)) was 1.5 µg/mL (≈ 1.04 µM). It also gave an MIC ([3]; in vitro strain C1V8 derived from CMRSA-1, read-out: CLSI Etest MIC) of 10 µg/mL (≈ 6.9 µM), an MIC ([3]; in vitro strain C1V30 derived from CMRSA-1, read-out: CLSI Etest MIC) of 16 µg/mL (≈ 11 µM) and an MIC ([3]; in vitro strain C2V4 derived from CMRSA-2, read-out: CLSI Etest MIC) of 6 µg/mL (≈ 4.14 µM). The MIC ([3]; in vitro strain C2V8 derived from CMRSA-2, read-out: CLSI Etest MIC) was 9 µg/mL (≈ 6.21 µM), the MIC ([3]; in vitro strain C2V24 derived from CMRSA-2, read-out: CLSI Etest MIC) was 30 µg/mL (≈ 20.7 µM) and the MIC ([3]; in vitro strain C3V24 derived from CMRSA-3, read-out: CLSI Etest MIC) was 20 µg/mL (≈ 13.8 µM). It also gave an MIC ([3]; in vitro strain C4V8 derived from CMRSA-4, read-out: CLSI Etest MIC) of 5 µg/mL (≈ 3.45 µM), an MIC ([3]; read-out: CLSI Etest MIC, in vitro strain C1V4 derived from CMRSA-1) of 5 µg/mL (≈ 3.45 µM) and an MIC ([3]; strain CMRSA-1 (MRSA), 0.5 McF inoculum, read-out: CLSI Etest MIC) of 1.5 µg/mL (≈ 1.04 µM). The MIC ([3]; strain CMRSA-2 (MRSA), 0.5 McF inoculum, read-out: CLSI Etest MIC) was 1.5 µg/mL (≈ 1.04 µM), the MIC ([3]; strain CMRSA-4 (MRSA), 0.5 McF inoculum, read-out: CLSI Etest MIC) was 1 µg/mL (≈ 0.69 µM) and the “CLSI Etest category” value ([3]; in vitro strain C1V4 derived from CMRSA-1) was “I”. The “CLSI Etest category” value ([3]; in vitro strain C1V8 derived from CMRSA-1) was “I”, the “CLSI Etest category” value ([3]; in vitro strain C1V30 derived from CMRSA-1) was “I” and the “CLSI Etest category” value ([3]; in vitro strain C2V4 derived from CMRSA-2) was “I”. For the same molecule, the “CLSI Etest category” value ([3]; in vitro strain C2V8 derived from CMRSA-2) was “I”, the “CLSI Etest category” value ([3]; in vitro strain C2V24 derived from CMRSA-2) was “I” and the “CLSI Etest category” value ([3]; in vitro strain C3V4 derived from CMRSA-3) was “S”. For the same molecule, the “CLSI Etest category” value ([3]; in vitro strain C3V8 derived from CMRSA-3) was “I”, the “CLSI Etest category” value ([3]; in vitro strain C3V24 derived from CMRSA-3) was “I” and the “CLSI Etest category” value ([3]; in vitro strain C4V8 derived from CMRSA-4) was “I”. For the same molecule, the “CLSI Etest category” value ([3]; in vitro strain C4V20 derived from CMRSA-4) was “I”, the “CLSI Etest category” value ([3]; strain CMRSA-1 (MRSA), 0.5 McF inoculum) was “S” and the “CLSI Etest category” value ([3]; strain CMRSA-2 (MRSA), 0.5 McF inoculum) was “S”. For the same molecule, the “CLSI Etest category” value ([3]; strain CMRSA-3 (MRSA), 0.5 McF inoculum) was “S”, the “CLSI Etest category” value ([3]; strain CMRSA-4 (MRSA), 0.5 McF inoculum) was “S” and the “Modified Etest MIC” value [4, 5] was 8 mg/L. For the same molecule, the “Modified Etest category” value [4, 5] was “I”, the “Modified Etest MIC” value [4, 6] was 16 mg/L and the “Modified Etest category” value [4, 6] was “I”. For the same molecule, the “Modified Etest MIC” value [4, 7] was 8 mg/L, the “Modified Etest category” value [4, 7] was “I” and the “Modified Etest MIC” value [4, 8] was 8 mg/L. The “Modified Etest category” value [4, 8] was “I”, the “Modified Etest MIC” value [4, 9] was 8 mg/L and the “Modified Etest category” value [4, 9] was “I”. The “Modified Etest MIC” value [4, 10] was 48 mg/L, the “Modified Etest category” value [4, 10] was “R” and the “Modified Etest MIC” value [4, 11] was 4 mg/L. For the same molecule, the “Modified Etest category” value [4, 11] was “S”, the “Modified Etest MIC” value [4, 12] was 6 mg/L and the “Modified Etest category” value [4, 12] was “I”. The “Modified Etest MIC” value [4, 13] was 16 mg/L, the “Modified Etest category” value [4, 13] was “I” and the “Modified Etest MIC” value [4, 14] was 6 mg/L. For the same molecule, the “Modified Etest category” value [4, 14] was “I”, the “Modified Etest MIC” value [4, 15] was 6 mg/L and the “Modified Etest category” value [4, 15] was “I”. For the same molecule, the “Modified Etest MIC” value [4, 16] was 12 mg/L, the “Modified Etest category” value [4, 16] was “I” and the “Modified Etest MIC” value ([4]; strain NRS118, 2 McF inoculum) was 24 mg/L. For the same molecule, the “Modified Etest category” value ([4]; strain NRS118, 2 McF inoculum) was “I”, the “Modified Etest MIC” value [4, 17] was 8 mg/L and the “Modified Etest category” value [4, 17] was “I”. The “Modified Etest MIC” value [4, 18] was 24 mg/L and the “Modified Etest category” value [4, 18] was “I”.
